Experimental data from patent US8975246B2, “Bile acid or bile salt fatty acid conjugates” (Galmed Research and Development Ltd., priority 2001, dated 2015).

Experiments:
Type in all cases: in vivo
Golden Syrian Hamsters = assay: Serum cholesterol of hamsters on lithogenic diet; conditions: Lithogenic diet 1 + BAFAC II 150 mg/kg/day by gavage, 10 W
Description: Golden Syrian Hamsters-(Anilab, Rehovot, Israel) 4-6 weeks old weighing 90-110 gm were used. They were fed a lithogenic diet (No. 1) consisting of their regular diet supplemented with (w/w) cholesterol 1%, Palmitic Acid 1.2%, Corn Oil 2% (modified from Ayvad et al., Lipids, 1992; 27:993-998) for 10 weeks. Half of the animals were given in addition 3β-arachidylamido-7α,12α-dihydroxy-5β-cholan-24-oic acid at a dose of 150 mg/kg/day suspended in saline, by intragastric gavage. The control animals were similarly given an equal volume of saline. After ten weeks the animals were anesthetized, heart blood was drawn for analysis. The liver and other organs were removed. Serum cholesterol levels were determined by autoanalyzer.

[1] = tested on: Golden Syrian Male Hamsters; assay: Fatty liver histologic score, hamsters; conditions: Lithogenic diet 1 + BAFAC 150 mg/kg/day, 10 W
Description: The presence of fatty liver was evaluated by a pathologist unaware of the treatments, scoring coded slides in a blinded manner.
The scoring system was as follows:
Golden Syrian Male Hamsters (Anilab, Rehovot, Israel) […] weighing 90-110 gm were used. They were fed a lithogenic diet (No 1). Half of the animals were given in addition 150 mg/kg/day of 3β-arachidylamido-7α,12α-dihydroxy-5β-cholan-24-oic acid. The compound was given suspended in saline, by intragastric gavage. Control animals were similarly given saline only. After 10 weeks the animals were anesthetized and sacrificed. The liver and other organs were removed and placed in formaline for histologic examination.

human patients = assay: Human study: change in insulin; conditions: for Change from Baseline in Insulin, Max / Change from Baseline in Insulin, Mean / Change from Baseline in Insulin, Median / Change from Baseline in Insulin, Min: ITT
Description: The effects of BAFACs on disorders associated with Fatty liver, insulin resistance and altered glucose metabolism were tested on 60 human patients. Experiments were subdivided to 2 dosage regimens: Aramchol 300 mg daily (high dose) and 100 mg daily (low dose) respectively for a total period time of 3 months. The Aramchol:placebo ratio is of 2:1 for the low dose arm, and 1:1 for the high dose arms.
The study period included a 3 month treatment period with Aramchol low dose, or Aramchol high dose, or placebo, and a one month follow-up period. Aramchol was given daily orally. During the treatment period, all patients attended periodic […] (at first month) and subsequently monthly study-center visits in order to assess safety and efficacy of the treatment.
The results are shown using two known in the art principle statistical evaluation on, Intention-To-Treat (ITT) and Per Protocol (PP) populations. The ITT principle asserts that the effect of a treatment policy can be best assessed by evaluation on the basis of the intention to treat a subject (i.e. the planned treatment regimen) rather than the actual treatment given. It has the consequence that subjects allocated to a treatment group should be followed up, assessed and analyzed as members of that group irrespective of their compliance to the planned course of treatment. […] Compliance covers such considerations as exposure to treatment, availability of measurements and absence of major protocol violations.

ICR male mice = assay: Fasting blood glucose, streptozotocin treated mice (IDDM model); conditions: Streptozotocin 200 mg/kg i.p., regular diet, BAFAC 150 mg/kg/day by gavage, 16 days
Description: (§1) The effects of BAFACs on fasting blood glucose were tested in 3 animal species: Hamsters, Rats and Mice. The animals were kept on regular or high fat diets (as specified). In each group half of the animals received a daily BAFAC dose (150 mg/kg) dispersed in 0.5 ml of saline by gavage. The other half received similarly, by gavage, an equal volume of saline only. All animals were kept on a 12 hr day/night cycle at 22° C. throughout the experiment. They had access to water ad libidum.
ICR male mice, 4 weeks old (approx. 20 gm) were fed a regular diet. Streptozotocin 200 mg/kg was injected i.p. on the first day of the experiment. (This induced damage to the islet cells of the pancreas and simulated IDDM). Fasting blood glucose was obtained from sacrificed animals after 16 days of the trial. There were 3 groups of 7 animals each. Controls—regular diet only. Streptozotocin (Stz) treated animals receiving saline only by gavage and streptozocin treated animals receiving 150 mg/kg/day of BAFAC by gavage. The BAFAC used in all these hyperglycemia studies was a conjugate of arachidic and cholic acid (at position 3) using an amide bond (C-20 BAFAC, Aramchol).

Wistar male rats = assay: Fasting blood glucose, rats on regular or high fat diet; conditions: 4 weeks
Description: as §1
Wistar male rats 4 weeks old (100-120 gm) were fed a regular chow diet or a high fat diet enriched with lard (10%), cholesterol (2.5%) and cholic acid (0.5%) (w/w). Blood and organ samples were obtained after sacrifice (in the fasting state) after 4 weeks of the trial. Half of the animals in each group were given BAFAC 150 mg/kg; the others were given an equal volume of saline. There were 7 rats in the control and test groups on a regular diet and 6 rats in each group given a high fat diet.
The hamsters and rats on the high fat diets developed fatty liver (confirmed by chemical measurement of liver fat), a high fasting blood glucose, and represented models of NIDDM.
ICR male mice, 4 weeks old (approx. 20 gm) were fed a regular diet. Streptozotocin 200 mg/kg was injected i.p. on the first day of the experiment. (This induced damage to the islet cells of the pancreas and simulated IDDM). […]

Inbred C57J/L male mice = assay: Serum cholesterol of mice on lithogenic diet
Description: Inbred C57J/L male mice (Jackson Lab., Maine, USA) 4-6 weeks old weighing 20-25 gm were used. They were given their regular diet supplemented with (% w/w) Butter fat 15, Cholesterol 1, Cholic Acid 0.5, Corn Oil 2 (modified from Khanuia et al., Proc. Natnl. Acad. Sci. USA 1995; 92:7729-33) for 4-8 weeks (Lithogenic diet #2). Half of the group were given 3β-arachidylamido-7α,12α-dihydroxy-5β-cholan-24-oic acid at a dose of 150 mg/kg/day suspended in saline by intragastric gavage. The other half were similarly given an equal volume of saline. After 4-8 weeks the animals were anesthetized, heart blood was drawn for analysis. The liver and other organs were removed. Serum cholesterol levels were determined by autoanalyzer.
Another group of C57 J/L male inbred mice (Jackson Laboratories, Maine, USA) 4-6 weeks old weighing 20-25 gm. were given a lithogenic diet (No. 2) for 8 weeks and then a regular diet for another 8 weeks. During the 8 weeks of the regular diet part of the animals were given 3β-arachidylamido-7α,12α-dihydroxy-5β-cholan-24-oic acid by intragastric gavage at a dose of 150 mg/kg/day. After a total of 16 weeks the animals were anesthetized, heart blood was drawn for analysis. Liver and other organs were removed. Serum cholesterol levels were analyzed as above. A third group of animals were given a regular diet throughout the 16 weeks and then similarly analyzed.

CCCCCCCCCCCCCCCCCCCC(=O)N[C@H]1CC[C@@]2(C)[C@@H](C1)C[C@@H](O)[C@@H]1[C@@H]2C[C@H](O)[C@]2(C)[C@@H]([C@H](C)CCC(=O)O)CC[C@@H]12 [Aramchol, 3β-arachidylamido-7α,12α-dihydroxy-5β-cholan-24-oic acid]
Serum Cholesterol (mean + StD) (Golden Syrian Hamsters): 202 (59.6) mg %
Fatty Liver Scores: number of animals with score 0 ([1]; n 7, 0 - No fatty liver): 6
Fatty Liver Scores: number of animals with score 2 ([1]; n 7, 2 - Mild fatty liver): 1
Fatty Liver Score, mean ([1]; score 0 (no fatty liver) to 4 (severe, >50% of liver surface)): 0.28
Change from Baseline in Insulin, Max (human patients; Aramchol 100 mg/d oral): 38.9
Change from Baseline in Insulin, Mean (human patients; Aramchol 100 mg/d oral): 5.6
Change from Baseline in Insulin, Median (human patients; Aramchol 100 mg/d oral): 2.5
Change from Baseline in Insulin, Min (human patients; Aramchol 100 mg/d oral): −7.4
Change from Baseline in Insulin, Max (human patients; Aramchol 300 mg/d oral): 9.1
Change from Baseline in Insulin, Mean (human patients; Aramchol 300 mg/d oral): −21.1
Change from Baseline in Insulin, Median (human patients; Aramchol 300 mg/d oral): 0.9
Change from Baseline in Insulin, Min (human patients; Aramchol 300 mg/d oral): −367.5
basal insulin levels (in words) (human patients; tested subjects, Table 8): reduces basal insulin levels
fasting blood glucose (ICR male mice): markedly reduced
fasting blood glucose (Wistar male rats; high fat diet (fatty liver), BAFAC 150 mg/kg by gavage, vs saline): markedly reduced
blood glucose (Wistar male rats; normal (regular) diet, no hyperglycemia or fatty liver, BAFAC 150 mg/kg): no effect
Serum Cholesterol (mean + StD) (Inbred C57J/L male mice; Lithogenic diet 2 + BAFAC II 150 mg/kg/day by gavage, 4 W): 143 (19.8) mg %
Serum Cholesterol (mean + StD) (Inbred C57J/L male mice; Lithogenic diet 2 + BAFAC II 150 mg/kg/day by gavage, 6 W): 125 (10.8) mg %
Serum Cholesterol (mean + StD) (Inbred C57J/L male mice; Lithogenic diet 2 + BAFAC II 150 mg/kg/day by gavage, 8 W): 139 (0.7) mg %
Serum Cholesterol (mean + StD) (Inbred C57J/L male mice; Lithogenic diet 2 for 8 W then regular diet 8 W with BAFAC II 150 mg/kg/day, total 16 W): 65 (6.8) mg %
